The values that follow are results of earlier work, collected in EP1815850B1, “Controlled release formulation of divalproic acid and its derivatives” (TEVA PHARMACEUTICAL INDUSTRIES LTD., priority 2006, dated 2007).

The conditions of the data set: in adults.

`CCCC(CCC)C(=O)O` [valproic acid, 2-Propylpentanoic acid]: the elimination half-life entry is “six and seventeen”.
